The record followed here is paper PMC6155608, “Substitution at the C-3 Position of Catechins Has an Influence on the Binding Affinities against Serum Albumin” (Molecules : A Journal of Synthetic Chemistry and Natural …, 2017).

Assay [1] deals with T1, human serum albumin (HSA) (Homo sapiens, UniProt P02768).
T1 construct: BSA (F-V) and HSA (F-V) were purchased from Nacalai Tesque (Kyoto, Japan); purchased Nacalai Tesque (Kyoto, Japan)
Kind of assay: Trp fluorescence quenching of HSA (Stern–Volmer analysis). Details: unit not given here. The class given is binding. The note with it: 0.3 mg/mL HSA, excitation 280 nm; means ± SE. The protocol: Finally, we investigated the interaction between HSA and catechins and their derivatives (Figure 6). HSA has one Trp residue (Trp-214) located in drug-binding site I, and this residue behaves similarly to the Trp-213 of BSA [22]. […] Moreover, shift of the fluorescence peak wavelength against HSA was weaker than that against BSA.
(§1) Analysis of fluorescence quenching was performed as described previously. A series of mixtures was prepared with catechins or their derivatives at various concentrations (as indicated in each figure legend) and a fixed concentration of BSA (0.3 mg/mL). After the mixture was incubated at 20 °C for 20 min, the fluorescence spectrum of BSA in the mixture was measured at 20 °C in 50 mM sodium phosphate buffer (pH 7.0) at an excitation wavelength of 280 nm and with emission in the range 290–450 nm. All measurements were performed in triplicate. Fluorescence quenching data were analyzed by the Stern–Volmer equation (Equation (1)): F0 = F (1 + Kq × Q),(1) where F0 and F are the relative fluorescence intensities of BSA without and with catechin, respectively, Kq is the Stern–Volmer quenching constant, and Q is the concentration of catechin.

Assay [2] addresses T2, bovine serum albumin (BSA) (Bos taurus, UniProt P02769).
T2 construct: BSA (F-V) and HSA (F-V) were purchased from Nacalai Tesque (Kyoto, Japan); purchased Nacalai Tesque (Kyoto, Japan)
Kind of assay: Trp fluorescence quenching of BSA (Stern–Volmer analysis). The class given is binding. Details: Kq value (Stern–Volmer quenching constant) against BSA: unit not given here. As to conditions: 0.3 mg/mL BSA; for Kq value (Stern–Volmer quenching constant) against BSA: 20 °C, 50 mM sodium phosphate buffer pH 7.0, excitation 280 nm, means ± SE. Here is the method:
The fluorescence spectra of another natural catechin was also measured (data not shown).
From the data obtained by fluorescence analysis, the Stern–Volmer quenching constants (Kq values) were calculated by the Stern–Volmer relationship.
as §1

Each structure is given as a SMILES string.

T2 sequence (P02769 25-607): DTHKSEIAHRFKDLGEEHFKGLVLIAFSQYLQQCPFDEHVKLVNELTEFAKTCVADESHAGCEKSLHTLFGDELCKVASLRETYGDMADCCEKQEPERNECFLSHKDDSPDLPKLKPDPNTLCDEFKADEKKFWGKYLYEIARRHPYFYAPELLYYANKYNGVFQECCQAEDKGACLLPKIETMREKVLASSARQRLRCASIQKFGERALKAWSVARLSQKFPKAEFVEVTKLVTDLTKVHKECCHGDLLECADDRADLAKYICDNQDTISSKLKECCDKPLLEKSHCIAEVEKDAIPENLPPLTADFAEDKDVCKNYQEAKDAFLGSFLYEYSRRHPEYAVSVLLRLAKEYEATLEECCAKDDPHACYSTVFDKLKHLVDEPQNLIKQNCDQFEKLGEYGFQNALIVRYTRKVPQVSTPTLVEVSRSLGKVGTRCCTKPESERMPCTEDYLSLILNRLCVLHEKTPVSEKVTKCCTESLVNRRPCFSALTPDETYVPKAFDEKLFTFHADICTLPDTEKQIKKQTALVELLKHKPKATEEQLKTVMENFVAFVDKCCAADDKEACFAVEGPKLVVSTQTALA
T1 sequence (P02768 25-609): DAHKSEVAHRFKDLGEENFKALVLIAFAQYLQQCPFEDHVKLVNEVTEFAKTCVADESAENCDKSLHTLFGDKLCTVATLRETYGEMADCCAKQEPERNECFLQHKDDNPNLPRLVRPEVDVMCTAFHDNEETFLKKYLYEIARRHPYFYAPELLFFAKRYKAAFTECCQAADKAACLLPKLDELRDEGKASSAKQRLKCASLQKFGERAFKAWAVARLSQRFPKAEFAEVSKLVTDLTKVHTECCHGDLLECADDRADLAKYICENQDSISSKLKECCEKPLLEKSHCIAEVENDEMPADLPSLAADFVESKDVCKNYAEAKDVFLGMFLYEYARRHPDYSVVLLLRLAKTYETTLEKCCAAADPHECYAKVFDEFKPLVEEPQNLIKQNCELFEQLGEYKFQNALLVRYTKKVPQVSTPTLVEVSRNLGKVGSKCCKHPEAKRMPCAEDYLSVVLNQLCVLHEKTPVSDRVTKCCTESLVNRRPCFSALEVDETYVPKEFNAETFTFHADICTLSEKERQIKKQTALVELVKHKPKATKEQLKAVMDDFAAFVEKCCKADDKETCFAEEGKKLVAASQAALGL

As to `O=C(O[C@H]1Cc2c(O)cc(O)cc2O[C@@H]1c1ccc(O)c(O)c1)c1cc(O)c(O)c(O)c1` [Cg, (−)-catechin gallate], in assay [1], the “Kq value (Stern–Volmer quenching constant) against HSA” value (“Kq value … against HSA” for short) was determined as 0.011 ± 0.0011. Besides, in assay [2], the “Kq value (Stern–Volmer quenching constant) against BSA” value (“Kq value … against BSA” for short) turned out to be 0.034 ± 0.0092.
On the same counts, the results for `Oc1cc(O)c2c(c1)O[C@H](c1ccc(O)c(O)c1)[C@@H](O)C2` [(+)-C, catechin] are 0.002 ± 0.0001 and 0.005 ± 0.0003.
As for `Oc1cc(O)c2c(c1)O[C@H](c1ccc(O)c(O)c1)[C@H](O)C2` [(−)-EC, epicatechin], the “Kq value … against HSA” value in assay [1] is recorded as 0.006 ± 0.0013. The “Kq value … against BSA” value in assay [2] came out at 0.005 ± 0.0011.
In the case of `O=C(O[C@@H]1Cc2c(O)cc(O)cc2O[C@@H]1c1cc(O)c(O)c(O)c1)c1cc(O)c(O)c(O)c1` [EGCg, (−)-epigallocatechin gallate], the “Kq value … against HSA” value in assay [1] was 0.033 ± 0.0065. Further, in assay [2], the “Kq value … against BSA” value worked out at 0.225 ± 0.0192. Also, in assay [2] (excitation 280 nm), the “effect on fluorescence intensity of Trp residues of BSA” value is “decreased in a dose-dependent manner” and the “shift of fluorescence peak wavelength of BSA” value was “red-shifted”.
In the case of `O=C(O[C@@H]1Cc2c(O)cc(O)cc2O[C@@H]1c1ccc(O)c(O)c1)c1cc(O)c(O)c(O)c1` [ECg], in assay [1], the “Kq value … against HSA” value was found to be 0.007 ± 0.0011. The “Kq value … against BSA” value in assay [2] came to 0.060 ± 0.0118.
With `O=C(O[C@H]1Cc2c(O)cc(O)cc2O[C@@H]1c1cc(O)c(O)c(O)c1)c1cc(O)c(O)c(O)c1` [GCg], the “Kq value … against HSA” value in assay [1] is 0.009 ± 0.0008. Further, the “Kq value … against BSA” value in assay [2] stood at 0.019 ± 0.0030.
The like results for `COc1cc(C(=O)O[C@@H]2Cc3c(O)cc(O)cc3O[C@@H]2c2cc(O)c(O)c(O)c2)cc(O)c1O` [Methyl-EGCg, epigallocatechin-3-O-methyl gallate] were, in that order, 0.014 ± 0.0021 and 0.150 ± 0.0109.
On the same counts, the results for `Oc1cc(O)c2c(c1)O[C@H](c1cc(O)c(O)c(O)c1)[C@H](O)C2` [EGC] are 0.001 ± 0.0002 and 0.001 ± 0.0003.
The like results for `Oc1cc(O)c2c(c1)O[C@H](c1cc(O)c(O)c(O)c1)[C@@H](O)C2` [GC] were, in that order, 0.001 ± 0.0001 and 0.001 ± 0.0001.
